Measured values from US5858968A, “Method of treating or preventing type 1 diabetes by oral administration of insulin” (AutoImmune Inc., priority 1995, dated 1999).
Where “and” joins values, the source holds several entries; their conditions need not be identical. Equal values may be shown once. Entries after “also recorded” stand apart in the source; their conditions may differ.

Experiments:
Format in all cases: in vivo
NOD mice [1] = assay: Effect of feeding porcine insulin on spontaneous diabetes in NOD mice
Excerpt: NOD (non-obese diabetic mice) were obtained from Taconic Laboratories (Germantown, Mass.) at 4 weeks of age. There were a total of 30 animals in each of the groups mentioned below at the beginning of the experiment. At 4 1/2 weeks of age, animals were orally administered Porcine insulin (Novo Laboratories, Danbury, Conn.). Each animal received two treatments orally twice a week until 9 weeks of age. The mice were fed either saline (control) or 10 micrograms, 100 micrograms, or 1 milligram of Porcine insulin. The animals were fed (gavaged) with an 18 gauge ball-point needle (Popper and Sons, Inc., New Hyde Park, N.Y.). Beginning at 10 weeks the animals were then fed once a week for a total of 33 weeks. Beginning at 12 weeks the urine was tested weekly for the presence of glucose using Glucosuria test tape (Eli Lilly, Indianapolis, Ind.). If an animal tested 3+or higher on the glucose urine test, a serum sample was taken and blood glucose measured using a glucose analyzer (Beckman). If the blood glucose was 220 or higher, the animals were classified as diabetic and then sacrificed.

NOD mice [2] = assay: Glucose post oral insulin in fasting 7 week NOD mice; details: fasting 7 week old NOD mice
Protocol: In order to determine whether any endocrinologic (i.e. direct lowering of blood sugar) effects occurred following the feeding of insulin, 7 week old NOD mice (5 mice per group) were fed 1 mg of porcine insulin or 1 mg of myelin basic protein (obtained from Pel Freez, Rogers, Ariz.) as a control protein. Blood glucose was then measured over the next 24 hour period. As a positive control, a separate group of animals were injected subcutaneously with 20 micrograms of Porcine insulin. All animals were kept in the fasting state.

NOD mice [3] = assay: Insulitis in NOD mice fed insulin (preliminary experiments); details: NOD mice fed 1 mg, vs PBS-fed NOD mice; data not shown
Excerpt: Therefore, oral administration of insulin to NOD mice appeared to be affecting the infiltration of immune system cells into the pancreas and thus halting disease progression by preserving beta cell function.

NOD mice [4] = assay: Treatment of initial stages of diabetes in NOD mice; details: oral and aerosol administration, 0 to 1 mg, hyperglycemic NOD mice
Protocol: Insulin (0 to 1 mg as in Examples 1 and 2) will be administered to NOD mice which are suffering from hyperglycemia in an oral and aerosol form. The treatments will begin by weeks 12-20 of age, by which the serum glucose levels are at hyperglycemic concentrations in a certain percentage of animals prior to onset of diabetes.

[5] = subcutaneous injection of 20 micrograms

insulin: Porcine insulin (Novo Laboratories, Danbury, Conn.), given orally by gavage, subcutaneously as positive control, or planned as aerosol
development of diabetes (NOD mice [1]; NOD mice fed 1 mg insulin orally (gavage), vs saline control, diabetic = blood glucose 220 or higher): none of the mice went on to develop diabetes; also recorded: no diabetes developed; also recorded: None of the animals developed diabetes
development of diabetes (NOD mice [1]; NOD mice fed 10 micrograms insulin orally, dose response fashion): diabetes developed
blood sugar in individual animals which developed diabetes (NOD mice [1]; NOD mice fed 10 micrograms of insulin): 330 mg/dL and 420 mg/dL and 315 mg/dL and 459 mg/dL and 520 mg/dL and 487 mg/dL
development of diabetes (NOD mice [1]; NOD mice fed 100 micrograms insulin orally, dose response fashion): diabetes developed
blood sugar in individual animals that became diabetic (NOD mice [1]; NOD mice fed 100 micrograms of insulin): 500 mg/dL and 290 mg/dL and 600 mg/dL and 450 mg/dL
incidence of diabetes (NOD mice [1]; NOD mice, all doses of orally administered insulin, dose-dependent): lower incidence of diabetes; also recorded: reduced the numbers of these mice which subsequently went on to develop diabetes
treated animals that failed to develop diabetes (NOD mice [1]; NOD mice, highest dose of oral insulin (1 mg)): 100%
blood glucose after feeding (NOD mice [2]; 1 mg oral): no drop in the blood glucose
blood glucose over the next 24 hours (NOD mice [2]; 1 mg oral): gradual decrease in blood glucose
endocrinologic (metabolic) effects (NOD mice [2]; 1 mg oral): no endocrinologic (metabolic) effects
decrease in glucose level (NOD mice [2]; [5]): approximately 80 mg %
period over which the glucose decrease persisted (NOD mice [2]; [5]): 4 h
inflammatory immune system cells surrounding the pancreas (insulitis) (NOD mice [3]): fewer inflammatory immune system cells surrounding the pancreas
beta cell function (NOD mice [4]): preservation of beta cell function
serum glucose concentrations (NOD mice [4]): reduction in serum glucose concentrations to near normal levels

B1: myelin basic protein: myelin basic protein (obtained from Pel Freez, Rogers, Ariz.) fed as a control protein (protein, UniProt P02686 1-304, looked up)
Myelin basic protein: MGNHAGKRELNAEKASTNSETNRGESEKKRNLGELSRTTSEDNEVFGEADANQNNGTSSQDTAVTDSKRTADPKNAWQDAHPADPGSRPHLIRLFSRDAPGREDNTFKDRPSESDELQTIQEDSAATSESLDVMASQKRPSQRHGSKYLATASTMDHARHGFLPRHRDTGILDSIGRFFGGDRGAPKRGSGKDSHHPARTAHYGSLPQKSHGRTQDENPVVHFFKNIVTPRTPPPSQGKGRGLSLSRFSWGAEGQRPGFGYGGRASDYKSAHKGFKGVDAQGTLSKIFKLGGRDSRSGSPMARR
blood glucose after feeding (NOD mice [2]; 1 mg oral): no drop in the blood glucose
blood glucose over the next 24 hours (NOD mice [2]; 1 mg oral): gradual decrease in blood glucose
